Test system: MCH receptors
Test: MCH receptor activity class (method not given)
[1] = class by percent of control at 10^-7 M or IC50
[2] = class by percent of control at 10^−7 M or IC50
[3] = MCH receptor activity class 1-3 (percent of control at 10^-7 M or IC50)
[4] = activity class 1-3: percent of control at 10^-7 M or IC50
[5] = class 1-3 by percent of control at 10^-7 M or IC50
[6] = activity class per percent of control at 10^-7 M or IC50
[7] = MCH receptor, class by percent of control at 10^-7 M or IC50

In the case of `CN(C)c1ccnc(N[C@H]2CC[C@@H](NC(=O)C(CC(=O)c3ccccc3)c3c[nH]c4ccccc34)CC2)n1` (relative stereo) [compound 855, N-(cis-4-{[4-(dimethylamino)pyrimidin-2-yl]amino}cyclohexyl)-2-(1H-indol-3-yl)-4-oxo-4-phenylbutanamide], the class [1] is reported as 1 (Class 1: The value of percent of control at 10^−7 M was less than 40% or the value of IC50 was less than 50 nM.).

For `COc1ccc(C(=O)N[C@H]2CC[C@@H](CNc3ncc(C)c(N(C)C)n3)CC2)cc1` [compound 2715], the class [2] was 3 (Class 3 The value of percent of control at 10^−7 M was more than 60% or the value of IC50 was more than 200 nM.).

In the case of `CN(C)c1cc(N[C@H]2CC[C@@H](NC(=S)Nc3ccc(Br)cc3Cl)CC2)nc2ccccc12` [compound 2271], the class [1] is reported as 3 (Class 3 The value of percent of control at 10^−7 M was more than 60% or the value of IC50 was more than 200 nM.).

With `Cc1cccc(NC(=S)N[C@H]2CC[C@@H](Nc3nccc(N(C)C)n3)CC2)c1C` [compound 2344] the class [3] was 3 (Class 3 The value of percent of control at 10^−7 M was more than 60% or the value of IC50 was more than 200 nM.).

`COc1cc(COC(=O)NC2CCC(Nc3cc(N(C)C)c4ccccc4n3)CC2)c([N+](=O)[O-])cc1OC` (stereo not shown) [compound 1541, “[4-(4-Dimethylamino-quinolin-2-ylamino)-cyclohexyl]-carbamic acid 4,5-dimethoxy-2-nitro-benzyl ester] was tested, and the class [4] was 2 (Class 2: The value of percent of control at 10^−7 M was from 40% to 60% or the value of IC′50 was from 50 nM to 200 nM.).

With `CN(C)c1ccnc(N[C@H]2CC[C@@H](CNC(=O)c3cncc(Br)c3)CC2)n1` [compound 433] the class [5] was 3 (Class 3 The value of percent of control at 10^−7 M was more than 60% or the value of IC50 was more than 200 nM.).

For `COc1cc(F)c(CNC[C@H]2CC[C@@H](Nc3nccc(N(C)C)n3)CC2)cc1OC` [compound 1321], the class [1] was 3 (Class 3 The value of percent of control at 10^−7 M was more than 60% or the value of IC50 was more than 200 nM.).

For `CN(C)c1nc(N[C@H]2CC[C@@H](NC(=O)Nc3cc(Cl)cc(Cl)c3)CC2)nc2c1CCCC2` [compound 1794], the class [1] was 3 (Class 3 The value of percent of control at 10^−7 M was more than 60% or the value of IC50 was more than 200 nM.).

In the case of `CN(C)c1nc(N[C@H]2CC[C@@H](NC(=O)c3cc(-c4ccccc4)nc4ccccc34)CC2)nc2c1CCCC2` [compound 1033], the class [6] is reported as 2 (Class 2: The value of percent of control at 10^−7 M was from 40% to 60% or the value of IC′50 was from 50 nM to 200 nM.).

`CN(C)c1cc(N[C@H]2CC[C@@H](NC(=O)CSc3ccccc3)CC2)nc2ccccc12` [compound 63] was tested, and the class [7] was 3 (Class 3 The value of percent of control at 10^−7 M was more than 60% or the value of IC50 was more than 200 nM.).

With `CN(C)c1cc(N[C@H]2CC[C@@H](NC(=O)c3ccc(I)o3)CC2)nc2ccccc12` [compound 680, N-(cis-4-{[4-(dimethylamino)quinolin-2-yl]amino}cyclohexyl)-5-iodo-2-furamide] the class [1] was 1 (Class 1: The value of percent of control at 10^−7 M was less than 40% or the value of IC50 was less than 50 nM.).

`CN(C)c1ccnc(N[C@H]2CC[C@@H](NC(=O)Nc3ccc4c(c3)OCO4)CC2)n1` [compound 2238] was tested, and the class [1] was 3 (Class 3 The value of percent of control at 10^−7 M was more than 60% or the value of IC50 was more than 200 nM.).

With `CN(C)c1nc(N[C@H]2CC[C@@H](NC(=O)NCc3ccc(Br)cc3)CC2)nc2c1CCCC2` [compound 1723] the class [1] was 3 (Class 3 The value of percent of control at 10^−7 M was more than 60% or the value of IC50 was more than 200 nM.).

In the case of `CN(C)c1ccnc(N[C@H]2CC[C@@H](CNC(=O)c3c(F)cccc3F)CC2)n1` [compound 447], the class [5] is reported as 3 (Class 3 The value of percent of control at 10^−7 M was more than 60% or the value of IC50 was more than 200 nM.).

With `CN(C)c1nc(N[C@H]2CC[C@@H](NC(=O)C(CC(=O)c3ccc(Cl)cc3)SCc3ccc(Cl)cc3)CC2)nc2c1CCCC2` (relative stereo) [compound 1017] the class [6] was 3 (Class 3 The value of percent of control at 10^−7 M was more than 60% or the value of IC50 was more than 200 nM.).

In the case of `CN(C)c1nc(N[C@H]2CC[C@@H](NC(=O)c3cc(C(C)(C)C)c(O)c(C(C)(C)C)c3)CC2)nc2c1CCCC2` [compound 1060], the class [6] is reported as 3 (Class 3 The value of percent of control at 10^−7 M was more than 60% or the value of IC50 was more than 200 nM.).

`COc1ccc(F)cc1CNC[C@H]1CC[C@@H](Nc2nccc(N(C)C)n2)CC1` [compound 1294] was tested, and the class [1] was 3 (Class 3 The value of percent of control at 10^−7 M was more than 60% or the value of IC50 was more than 200 nM.).

For `CN(C)c1cc(N[C@H]2CC[C@@H](NC(=O)c3ccc(C(F)(F)F)cc3)CC2)nc2ccccc12` [compound 117], the class [7] was 3 (Class 3 The value of percent of control at 10^−7 M was more than 60% or the value of IC50 was more than 200 nM.).

In the case of `CC(CCN[C@H]1CC[C@@H](Nc2nc3c(c(N(C)C)n2)CCCC3)CC1)c1ccccc1` (stereo partly shown) [compound 1347], the class [1] is reported as 3 (Class 3 The value of percent of control at 10^−7 M was more than 60% or the value of IC50 was more than 200 nM.).

In the case of `COC(=O)N[C@H]1CC[C@@H](Nc2cc(N(C)C)c3ccccc3n2)CC1` [compound 1555], the class [4] is reported as 3 (Class 3 The value of percent of control at 10^−7 M was more than 60% or the value of IC50 was more than 200 nM.).

`CN(C)c1cc(N[C@H]2CC[C@@H](CNCc3csc4ccccc34)CC2)nc2ccccc12` [compound 1178] was tested, and the class [1] was 3 (Class 3 The value of percent of control at 10^−7 M was more than 60% or the value of IC50 was more than 200 nM.).

For `Cc1cccc(C(C)C)c1NC(=O)NC[C@H]1CC[C@@H](Nc2nc3c(c(N(C)C)n2)CCCC3)CC1` [compound 2471], the class [3] was 2 (Class 2: The value of percent of control at 10^−7 M was from 40% to 60% or the value of IC′50 was from 50 nM to 200 nM.).

For `Cc1cc(C(=O)N[C@H]2CC[C@@H](Nc3nc4c(c(N(C)C)n3)CCCC4)CC2)ccc1Br` [compound 493], the class [5] was 2 (Class 2: The value of percent of control at 10^−7 M was from 40% to 60% or the value of IC′50 was from 50 nM to 200 nM.).

In the case of `CN(C)c1nc(N[C@H]2CC[C@@H](NCCc3ccc(Br)cc3)CC2)nc2c1CCCC2` [compound 1481], the class [1] is reported as 3 (Class 3 The value of percent of control at 10^−7 M was more than 60% or the value of IC50 was more than 200 nM.).

In the case of `CC(CN[C@H]1CC[C@@H](Nc2nccc(N(C)C)n2)CC1)c1ccccc1` (relative stereo) [compound 1231], the class [1] is reported as 3 (Class 3 The value of percent of control at 10^−7 M was more than 60% or the value of IC50 was more than 200 nM.).

With `CN(C)c1ccnc(N[C@H]2CC[C@@H](NC(=O)C(C)(C)Oc3ccc(Cl)cc3)CC2)n1` [compound 357, 2-(4-chlorophenoxy)-N-(cis-4-{[4-(dimethylamino)pyrimidin-2-yl]amino}cyclohexyl)-2-methylpropanamide] the class [1] was 2 (Class 2: The value of percent of control at 10^−7 M was from 40% to 60% or the value of IC′50 was from 50 nM to 200 nM.).

For `Cc1cnc(N[C@H]2CC[C@@H](NC(=O)N(C)c3ccc(Cl)c(Cl)c3)CC2)nc1N(C)C` [compound 3022, N-(3,4-dichlorophenyl)-N′-(cis-4-{[4-(dimethylamino)-5-methylpyrimidin-2-yl]amino}cyclohexyl)-N-methylurea], the class [2] was 1 (Class 1: The value of percent of control at 10^−7 M was less than 40% or the value of IC50 was less than 50 nM.).

With `CN(C)c1cc(N[C@H]2CC[C@@H](NC(=O)c3ccc(F)c(C(F)(F)F)c3)CC2)nc2ccccc12` [compound 106, N-(cis-4-{[4-(dimethylamino)quinolin-2-yl]amino}cyclohexyl)-4-fluoro-3-(trifluoromethyl)benzamide] the class [7] was 1 (Class 1: The value of percent of control at 10^−7 M was less than 40% or the value of IC50 was less than 50 nM.).

`CN(C)c1cc(NC2CCC(NC(=O)OCc3ccc([N+](=O)[O-])cc3)CC2)nc2ccccc12` (stereo not shown) [compound 1548] was tested, and the class [4] was 3 (Class 3 The value of percent of control at 10^−7 M was more than 60% or the value of IC50 was more than 200 nM.).

For `COc1ccc(CC(=O)N[C@H]2CC[C@@H](Nc3nccc(N(C)C)n3)CC2)cc1` [compound 287], the class [1] was 3 (Class 3 The value of percent of control at 10^−7 M was more than 60% or the value of IC50 was more than 200 nM.).

In the case of `CN(C)c1nc(N[C@H]2CC[C@@H](NC(=O)CC3CCCC3)CC2)nc2c1CCCC2` [compound 511], the class [5] is reported as 3 (Class 3 The value of percent of control at 10^−7 M was more than 60% or the value of IC50 was more than 200 nM.).

In the case of `CN(C)c1cc(N[C@H]2CC[C@@H](NC(=O)c3ccccc3OC(F)(F)F)CC2)nc2ccccc12` [compound 118], the class [7] is reported as 3 (Class 3 The value of percent of control at 10^−7 M was more than 60% or the value of IC50 was more than 200 nM.).

In the case of `Cc1cnc(N[C@H]2CC[C@@H](NC(=O)c3ccccc3C(F)(F)F)CC2)nc1N(C)C` [compound 2918], the class [2] is reported as 3 (Class 3 The value of percent of control at 10^−7 M was more than 60% or the value of IC50 was more than 200 nM.).

For `Cc1cnc(N[C@H]2CC[C@@H](NC(=O)c3cccc(Br)c3)CC2)nc1N(C)C` [compound 2898, 3-bromo-N-(cis-4-{[4-(dimethylamino)-5-methylpyrimidin-2-yl]amino}cyclohexyl)benzamide], the class [2] was 1 (Class 1: The value of percent of control at 10^−7 M was less than 40% or the value of IC50 was less than 50 nM.).

For `CN(C)c1cc(NC2CCC(NCC3CCCCC3C(O)c3ccccc3)CC2)nc2ccccc12` (stereo not shown) [compound 1457], the class [1] was 3 (Class 3 The value of percent of control at 10^−7 M was more than 60% or the value of IC50 was more than 200 nM.).

`Cc1ccc(S(=O)(=O)n2ccc(C(=O)N[C@H]3CC[C@@H](Nc4nc5c(c(N(C)C)n4)CCCC5)CC3)c2)cc1` [compound 1038] was tested, and the class [6] was 3 (Class 3 The value of percent of control at 10^−7 M was more than 60% or the value of IC50 was more than 200 nM.).

`COC(CNC1CCC(Nc2nc3c(c(N(C)C)n2)CCCC3)CC1)c1ccccc1` (stereo not shown) [compound 1484] was tested, and the class [1] was 3 (Class 3 The value of percent of control at 10^−7 M was more than 60% or the value of IC50 was more than 200 nM.).
